In the supplement of paper PMC7695840:
Structures can show the parent of a compound that is named as a salt.

Legend:
[1] = tested on: Staphylococcus aureus MW2 (mecA+); assay: IC50 (growth, competition assay); settings: cefoxitin: subinhibitory
How it was run: (§1)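 Signals from DsRed (540/590) and GFP (485/520) were scaled on every plate between single-strain control medians, with No Treatment then set to 0.5. The cells were a 1:1 mix of pre-induced fluorescent S. aureus MW2 strains with and without the resistance gene, grown unshaken for 20 h at 37 °C and 90% humidity in LB in 1536-well plates under a subinhibitory drug dose set each day. Each strain's IC50 was defined as the dose halving the No Treatment signal, or the maximal signal.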

[2] = tested on: Staphylococcus aureus MW2 delta-mecA (mecA-); assay: IC50 (growth, competition assay); settings: cefoxitin: subinhibitory
How it was run: as §1

SMILES	IC50 ([1]; fluorescent label: DsRed)	IC50 ([1]; fluorescent label: GFP)	IC50 ([2]; fluorescent label: DsRed)	IC50 ([2]; fluorescent label: GFP)
CC[C@H]1OC(=O)[C@H](C)[C@@H](O[C@H]2C[C@@](C)(OC)[C@@H](O)[C@H](C)O2)[C@H](C)[C@@H](O[C@@H]2O[C@H](C)C[C@H](N(C)C)[C@H]2O)[C@](C)(O)C[C@@H](C)/C(=N\OCOCCOC)[C@H](C)[C@@H](O)[C@]1(C)O [Roxithromycin (Roxl-150)]	4.26 µM	3.99 µM	< 0.498 µM	< 0.498 µM
OC1(c2ccc(Cl)c(C(F)(F)F)c2)CCN(CCCC(c2ccc(F)cc2)c2ccc(F)cc2)CC1 [SEMAP]	29.7 µM	27.3 µM	< 9.85 µM	< 9.85 µM
Clc1ccc(CO/N=C(\Cn2ccnc2)c2ccc(Cl)cc2Cl)c(Cl)c1 [OXISTAT]	35.3 µM	43.3 µM	30.4 µM	17.3 µM
OC(CNCC(O)C1CCc2cc(F)ccc2O1)C1CCc2cc(F)ccc2O1 (stereo not given) [Nebivolol]	108 µM	111 µM	35 µM	19.6 µM
CN1CCN(c2c(F)cc3c(=O)c(C(=O)O)cn4c3c2OCN4C)CC1 [Marbofloxacin]	6.41 µM	6.33 µM	2.09 µM	1.19 µM
O=C(O)c1cccnc1Nc1cccc(C(F)(F)F)c1 [Niflumic acid]	18.5 µM	21.4 µM	25.8 µM	32.3 µM
C[C@@H](O[C@H]1OCCN(Cc2n[nH]c(=O)[nH]2)[C@H]1c1ccc(F)cc1)c1cc(C(F)(F)F)cc(C(F)(F)F)c1 [Aprepitant (MK-0869)]	45 µM	54.3 µM	18.9 µM	17.8 µM
O=C1C(Cl)=C(Cl)C(=O)C(Cl)=C1Cl [CHLORANIL]	67.1 µM	83.8 µM	16 µM	17.3 µM
C[C@H]1COc2c(N3CCN(C)CC3)c(F)cc3c(=O)c(C(=O)O)cn1c23 [LEVAQUIN]	< 9.85 µM	< 9.85 µM	< 9.85 µM	< 9.85 µM
CN1C[C@H](CNC(=O)OCc2ccccc2)C[C@@H]2c3cccc4c3c(cn4C)C[C@H]21 [METERGOLINE]	50.7 µM	53.6 µM	16.8 µM	15.9 µM
CN(C)[C@@H]1C(=O)C(C(N)=O)=C(O)[C@@]2(O)C(=O)C3=C(O)c4c(O)ccc(Cl)c4[C@@H](O)[C@H]3C[C@@H]12 [Demeclocycline hydrochloride]	< 9.85 µM	< 9.85 µM	< 9.85 µM	< 9.85 µM
CC[C@@]1([C@H]2O[C@H]([C@H]3O[C@@](O)(CO)[C@H](C)C[C@@H]3C)C[C@H]2C)CC[C@H]([C@@]2(C)CC[C@]3(C[C@H](O)[C@@H](C)[C@@H]([C@H](C)[C@H](OC)[C@@H](C)C(=O)O)O3)O2)O1 [RUMENSIN]	< 9.85 µM	< 9.85 µM	< 9.85 µM	12.5 µM
O=Nc1ccc2oc(=O)ccc2c1 [6-Nitroso-1,2-benzopyrone]	53.1 µM	57.9 µM	31 µM	32.1 µM
CC(C)=CCCC1(C)C=Cc2c(O)c3c(c(CC=C(C)C)c2O1)OC12C(=CCCC1C(C)(C)O[C@@]2(C/C=C(\C)C(=O)O)C(=O)O)C3=O (stereo not given in full) [GARCINOLIC ACID]	< 9.85 µM	14.8 µM	< 9.85 µM	< 9.85 µM
O=S(=O)(O)c1cc(I)c(O)c2ncccc12 [YATREN]	84.9 µM	102 µM	49.8 µM	59.8 µM
C[C@H](Cc1ccc(O)c(O)c1)[C@@H](C)Cc1ccc(O)c(O)c1	33.4 µM	57.9 µM	< 9.85 µM	< 9.85 µM
COC(=O)C1=C(C)NC(C)=C(C(=O)OCC(C)C)C1c1ccccc1[N+](=O)[O-] (stereo not given) [SULAR]	> 150 µM	> 150 µM	78 µM	51.8 µM
CC(C)n1cnc2c(NCCc3ccc(O)cc3)nc(-c3csc4ccccc34)nc21 [StemRegenin 1]	25.6 µM	29.9 µM	15.1 µM	11.2 µM
CN[C@H]1CC[C@@H](c2ccc(Cl)c(Cl)c2)c2ccccc21 [Sertraline HCl]	94.5 µM	111 µM	12 µM	< 9.85 µM
CO/N=C1\CN(c2nc3c(cc2F)c(=O)c(C(=O)O)cn3C2CC2)CC1CN (stereo not given) [FACTIVE]	< 9.85 µM	< 9.85 µM	< 9.85 µM	< 9.85 µM
O=c1[nH]c(=O)n([C@H]2C[C@H](O)[C@@H](CO)O2)cc1F [FLOXURIDINE]	< 9.85 µM	< 9.85 µM	< 9.85 µM	< 9.85 µM
O=c1[nH]cc(F)c(=O)[nH]1 [Adrucil (Fluorouracil)]	1.76 µM	1.78 µM	< 0.498 µM	< 0.498 µM
Oc1c(Br)cc(Br)c2cccnc12 [FENILOR]	< 9.85 µM	13.6 µM	< 9.85 µM	< 9.85 µM
N#Cc1c(Cl)c(Cl)c(Cl)c(C#N)c1Cl [CHLOROTHALONIL]	< 9.85 µM	< 9.85 µM	< 9.85 µM	< 9.85 µM
CN(C)[C@@H]1C(O)=C(C(N)=O)C(=O)[C@@]2(O)C(O)=C3C(=O)c4c(O)ccc(Cl)c4[C@@H](O)[C@H]3C[C@@H]12 [DECLOMYCIN]	< 9.85 µM	< 9.85 µM	< 9.85 µM	< 9.85 µM
CCc1oc2ccccc2c1C(=O)c1cc(Br)c(O)c(Br)c1 [DESURIC]	< 9.85 µM	< 9.85 µM	< 9.85 µM	< 9.85 µM
Brc1c(Br)c(Br)c2[nH]cnc2c1Br [TBBz]	12.4 µM	30.5 µM	11.7 µM	11.3 µM
COc1ccc2c(c1)CCC1C2CCC2(C)C(NCCCCCCN3C(=O)C=CC3=O)CCC12 (stereo not given)	> 150 µM	> 150 µM	46.3 µM	44.2 µM
CN[C@H]1CC[C@@H](c2ccc(Cl)c(Cl)c2)c2ccccc21 [ZOLOFT]	103 µM	106 µM	31.1 µM	15.5 µM
O=C(/C=C/c1ccc(O)cc1)c1ccc(O)cc1O [Isoliquiritigenin]	130 µM	> 150 µM	27.5 µM	17 µM
